Data: publication PMC3425516 (PLoS ONE, 2012)

Assays:
Experiment in all cases: NCI-60 cell lines screening
Format in all cases: cell-based, human
786-0 = details: 786-0, Renal Cancer panel
Procedure: (§1) The NCI-60 cancer cell lines screening was conducted by the NCI’s Developmental Therapeutics Program (DTP; http://www.dtp.nci.nih.gov/branches/btb/ivclsp.html).

A498 = details: A498, Renal Cancer panel
Procedure: as §1

COLO 205 = details: COLO 205, Colon Cancer panel
Procedure: as §1

DU-145 = details: DU-145, Prostate Cancer panel
Procedure: as §1

HCT-116 = details: HCT-116, Colon Cancer panel
Procedure: as §1

HCT-15 = details: HCT-15, Colon Cancer panel
Procedure: as §1

HS 578T = test system: HS 578T
Procedure: as §1

K-562 = details: K-562, Leukemia panel
Procedure: as §1

KM12 = details: KM12, Colon Cancer panel
Procedure: as §1

M14 = details: M14, Melanoma panel
Procedure: as §1

MAD-MB-231/ATCC = details: Breast Cancer panel
Procedure: as §1

MCF-7 = details: MCF-7, Breast Cancer panel
Procedure: as §1

NCI-H226 = details: NCI-H226, Non-Small Cell Lung Cancer panel
Procedure: as §1

NCI-H23 = details: NCI-H23, Non-Small Cell Lung Cancer panel
Procedure: as §1

NCI-H522 = details: NCI-H522, Non-Small Cell Lung Cancer panel
Procedure: as §1

NCI/ADR-RES = details: Ovarian Cancer panel
Procedure: as §1

OVCAR-4 = details: OVCAR-4, Ovarian Cancer panel
Procedure: as §1

OVCAR-8 = details: OVCAR-8, Ovarian Cancer panel
Procedure: as §1

RPMI-8226 = details: RPMI-8226, Leukemia panel
Procedure: as §1

SF-268 = details: SF-268, CNS Cancer panel
Procedure: as §1

SF-539 = details: SF-539, CNS Cancer panel
Procedure: as §1

SK-MEL-5 = details: SK-MEL-5, Melanoma panel
Procedure: as §1

SN12C = details: Renal Cancer panel
Procedure: as §1

SNB-19 = details: SNB-19, CNS Cancer panel
Procedure: as §1

SNB-75 = details: SNB-75, CNS Cancer panel
Procedure: as §1

SR = details: Leukemia panel
Procedure: as §1

TK-10 = details: TK-10, Renal Cancer panel
Procedure: as §1

UACC-62 = details: UACC-62, Melanoma panel
Procedure: as §1

UO-31 = details: UO-31, Renal Cancer panel
Procedure: as §1

[1] = Homo sapiens, read-out: LC50 (the source's name)

With O=C(C=Cc1ccc2c(c1)CCN2S(=O)(=O)c1ccccc1)NO [MPT0E028, 3-(1-benzenesulfonyl-2,3-dihydro-1H-indol-5-yl)-N-hydroxy-acrylamide] as the compound, how does the TGI (786-0) read?
The TGI was 1330 nM.

And the GI50 (786-0; Homo sapiens)?
Its GI50 is 300 nM.

What about the CC50 (786-0; [1]) of the same compound?
The CC50 was 4020 nM.

What about the TGI (A498) of the same compound?
The TGI was 1130 nM.

What about the GI50 (A498; Homo sapiens) of the same compound?
The GI50 was 243 nM.

And the CC50 (A498; [1])?
The CC50 was 5130 nM.

And the TGI (COLO 205)?
Its TGI is 264 nM.

And the GI50 (COLO 205; Homo sapiens)?
Its GI50 is 128 nM.

And the CC50 (COLO 205; [1])?
Its CC50 is 546 nM.

What about the TGI (DU-145) of the same compound?
The TGI was 1920 nM.

What about the GI50 (DU-145; Homo sapiens) of the same compound?
Its GI50 is 179 nM.

And the CC50 (DU-145; [1])?
Its CC50 is over 100000 nM.

What about the TGI (HCT-116) of the same compound?
The TGI was 204 nM.

And the GI50 (HCT-116; Homo sapiens)?
Its GI50 is 56.3 nM.

What about the CC50 (HCT-116; [1]) of the same compound?
The CC50 was 566 nM.

And the TGI (HCT-15)?
The TGI was 13100 nM.

And the GI50 (HCT-15; Homo sapiens)?
Its GI50 is 430 nM.

And the CC50 (HCT-15; [1])?
The CC50 was 90200 nM.

What about the TGI (HS 578T; HS 578T, Breast Cancer panel) of the same compound?
The TGI was 17900 nM.

What about the GI50 (HS 578T; Homo sapiens, Hs-578T) of the same compound?
Its GI50 is 253 nM.

And the CC50 (HS 578T; Homo sapiens, Hs-578T, read-out: LC50 (the source's name))?
The CC50 was over 100000 nM.

What about the GI50 (K-562; Homo sapiens, K562) of the same compound?
Its GI50 is 115 nM.

What about the CC50 (K-562; Homo sapiens, K562, read-out: LC50 (the source's name)) of the same compound?
The CC50 was over 100000 nM.

And the TGI (K-562)?
The TGI was over 100000 nM.

What about the GI50 (KM12; Homo sapiens) of the same compound?
The GI50 was 286 nM.

What about the CC50 (KM12; [1]) of the same compound?
The CC50 was 5780 nM.

What about the TGI (KM12) of the same compound?
The TGI was 1490 nM.

What about the GI50 (M14; Homo sapiens) of the same compound?
The GI50 was 179 nM.

And the CC50 (M14; [1])?
Its CC50 is 6450 nM.

What about the TGI (M14) of the same compound?
Its TGI is 1110 nM.

What about the TGI (MAD-MB-231/ATCC) of the same compound?
The TGI was 822 nM.

And the GI50 (MAD-MB-231/ATCC; Homo sapiens)?
The GI50 was 241 nM.

And the CC50 (MAD-MB-231/ATCC; [1])?
The CC50 was 20400 nM.

And the GI50 (MCF-7; Homo sapiens, MCF7)?
Its GI50 is 230 nM.

What about the CC50 (MCF-7; Homo sapiens, MCF7, read-out: LC50 (the source's name)) of the same compound?
Its CC50 is 62700 nM.

And the TGI (MCF-7)?
The TGI was 10500 nM.

And the GI50 (NCI-H226; Homo sapiens)?
Its GI50 is 1240 nM.

And the CC50 (NCI-H226; [1])?
Its CC50 is 19000 nM.

And the TGI (NCI-H226)?
The TGI was 3880 nM.

What about the GI50 (NCI-H23; Homo sapiens) of the same compound?
Its GI50 is 188 nM.

And the CC50 (NCI-H23; [1])?
Its CC50 is 3840 nM.

And the TGI (NCI-H23)?
Its TGI is 922 nM.

And the GI50 (NCI-H522; Homo sapiens)?
The GI50 was 167 nM.

And the CC50 (NCI-H522; [1])?
The CC50 was 13000 nM.

And the TGI (NCI-H522)?
Its TGI is 845 nM.

And the GI50 (NCI/ADR-RES; Homo sapiens)?
Its GI50 is 38.5 nM.

And the CC50 (NCI/ADR-RES; [1])?
Its CC50 is over 100000 nM.

And the TGI (NCI/ADR-RES)?
Its TGI is 239 nM.

And the GI50 (OVCAR-4; Homo sapiens)?
Its GI50 is 509 nM.

What about the CC50 (OVCAR-4; [1]) of the same compound?
Its CC50 is over 100000 nM.

And the TGI (OVCAR-4)?
Its TGI is 31800 nM.

What about the GI50 (OVCAR-8; Homo sapiens) of the same compound?
Its GI50 is 121 nM.

And the CC50 (OVCAR-8; [1])?
The CC50 was over 100000 nM.

And the TGI (OVCAR-8)?
Its TGI is 1750 nM.

What about the GI50 (RPMI-8226; Homo sapiens) of the same compound?
Its GI50 is 81.1 nM.

And the CC50 (RPMI-8226; [1])?
Its CC50 is over 100000 nM.

And the TGI (RPMI-8226)?
Its TGI is over 100000 nM.

What about the GI50 (SF-268; Homo sapiens) of the same compound?
Its GI50 is 464 nM.

What about the CC50 (SF-268; [1]) of the same compound?
The CC50 was 70400 nM.

And the TGI (SF-268)?
Its TGI is 3400 nM.

What about the GI50 (SF-539; Homo sapiens) of the same compound?
The GI50 was 241 nM.

And the CC50 (SF-539; [1])?
The CC50 was 3390 nM.

And the TGI (SF-539)?
The TGI was 1150 nM.

What about the GI50 (SK-MEL-5; Homo sapiens) of the same compound?
The GI50 was 136 nM.

And the CC50 (SK-MEL-5; [1])?
The CC50 was 705 nM.

And the TGI (SK-MEL-5)?
Its TGI is 310 nM.

What about the GI50 (SN12C; Homo sapiens) of the same compound?
The GI50 was 458 nM.

And the CC50 (SN12C; [1])?
The CC50 was over 100000 nM.

And the TGI (SN12C)?
Its TGI is 10200 nM.

And the GI50 (SNB-19; Homo sapiens)?
Its GI50 is 434 nM.

And the CC50 (SNB-19; [1])?
The CC50 was 5650 nM.

And the TGI (SNB-19)?
The TGI was 1640 nM.

What about the GI50 (SNB-75; Homo sapiens) of the same compound?
Its GI50 is 59.1 nM.

And the CC50 (SNB-75; [1])?
Its CC50 is 32800 nM.

And the TGI (SNB-75)?
Its TGI is 6270 nM.

And the GI50 (SR; Homo sapiens)?
Its GI50 is 60.1 nM.

What about the CC50 (SR; [1]) of the same compound?
The CC50 was over 100000 nM.

And the TGI (SR)?
Its TGI is over 100000 nM.

And the GI50 (TK-10; Homo sapiens)?
Its GI50 is 103 nM.

What about the CC50 (TK-10; [1]) of the same compound?
The CC50 was 33600 nM.

What about the TGI (TK-10) of the same compound?
The TGI was 660 nM.

What about the GI50 (UACC-62; Homo sapiens) of the same compound?
The GI50 was 71.6 nM.

And the TGI (UACC-62)?
The TGI was 339 nM.

What about the GI50 (UO-31; Homo sapiens) of the same compound?
Its GI50 is 169 nM.

What about the CC50 (UO-31; [1]) of the same compound?
The CC50 was 5630 nM.

And the TGI (UO-31)?
Its TGI is 1460 nM.
